Laboratory results reported in patent US20260262643A1, “HERBICIDAL BENZOXAZINES” (FMC CORPORATION, priority 2022, published 2026).

How the values were obtained:
pigweed, palmer [1] = test: Test C postemergence; assay type: in vivo, Amaranthus palmeri; conditions: postemergence, 10 days
Method in brief: (§1)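 Soil-applied (pre) and foliar (post, 1–2 leaf, 2–10 cm) sprays; surfactant-containing non-phytotoxic solvent vehicle; loam/sand substrate. Readout: visual % control at 10 d, greenhouse, versus untreated.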

ducksalad = test: Test D flooded paddy test; assay type: in vivo, Heteranthera limosa; conditions: 250 g ai/ha, applied to paddy water, visual rating after 13 to 14 days, scale 0 to 100 (0 no effect, 100 complete control)
Method in brief: (§2)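 Plants grown to the 2-leaf stage; pots flooded to 3 cm above soil at treatment and held at that depth throughout. Test compounds applied directly to the paddy water. After 13 to 14 days in a greenhouse, response was rated visually versus controls on a 0 (no effect) to 100 (complete control) scale.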

pigweed, palmer [2] = test: Test C preemergence; assay type: in vivo, Amaranthus palmeri; conditions: preemergence, 0 to 100 scale (0 no effect, 100 complete control)
Method in brief: as §1

ragweed [3] = test: Test C preemergence; assay type: in vivo, Ambrosia artemisiifolia; conditions: preemergence, 0 to 100 scale (0 no effect, 100 complete control)
Method in brief: as §1

corn [4] = test: Test C preemergence; assay type: in vivo, Zea mays; conditions: preemergence, 0 to 100 scale (0 no effect, 100 complete control)
Method in brief: as §1

goosegrass [5] = test: Test C postemergence; assay type: in vivo, Eleusine indica; conditions: postemergence, 10 days
Excerpt: (§3) Seeds of plant species selected from barnyardgrass (Echinochloa crusgalli), blackgrass (Alopecurus myosuroides), corn (Zea mays), foxtail, giant (giant foxtail, Setaria faberi), green foxtail (Setaria viridis), goosegrass (Eleusine indica), kochia (Bassia scoparia), oat, wild (wild oat, Avena fatua), pigweed, palmer (palmer amaranth, palmer pigweed, Amaranthus palmeri), Pigweed, Redroot (redroot pigweed, Amaranthus retroflexus), ragweed (common ragweed, Ambrosia artemisiifolia), ryegrass, Italian ([…] ryegrass, Lolium multiflorum), soybean (Glycine max), and wheat (Triticum aestivum) were planted into a blend of loam soil and sand and treated preemergence with a directed soil spray using test chemicals formulated in a non-phytotoxic solvent mixture which included a surfactant. At the same time, plants selected from these crops and weed species and also galium (catchweed bedstraw, Galium aparine) and horseweed (Erigeron canadensis) were planted in pots containing the same blend of loam soil and sand and treated with postemergence applications of test chemicals formulated in the same manner. Plants ranged in height from 2 to 10 cm and were in the one- to two-leaf stage for the postemergence treatment. Treated plants and untreated controls were maintained in a greenhouse for 10 days, after which time all treated plants were compared to untreated controls and visually evaluated for injury. Plant response ratings, summarized in Table C, are based on a 0 to 100 scale where 0 is no effect and 100 is complete control. A dash (-) response means no test result.

kochia [6] = test: Test C postemergence; assay type: in vivo, Bassia scoparia; conditions: postemergence, 10 days
Method in brief: as §1

ragweed [7] = test: Test C postemergence; assay type: in vivo, Ambrosia artemisiifolia; conditions: postemergence, 10 days
Method in brief: as §1

wheat [8] = test: Test C preemergence; assay type: in vivo, Triticum aestivum; conditions: preemergence, 0 to 100 scale (0 no effect, 100 complete control)
Method in brief: as §1

kochia [9] = test: Test C preemergence; assay type: in vivo, Bassia scoparia; conditions: preemergence, 0 to 100 scale (0 no effect, 100 complete control)
Method in brief: as §1

galium = test: Test C postemergence; assay type: in vivo, Galium aparine; conditions: postemergence, 10 days
Method in brief: as §1

wheat [10] = test: Test C postemergence; assay type: in vivo, Triticum aestivum; conditions: postemergence, 10 days
Method in brief: as §1

ryegrass, Italian [11] = test: Test C postemergence; assay type: in vivo, Lolium multiflorum; conditions: postemergence, 10 days
Method in brief: as §1

rice = test: Test D flooded paddy test; assay type: in vivo, Oryza sativa; conditions: 250 g ai/ha, applied to paddy water, visual rating after 13 to 14 days, scale 0 to 100 (0 no effect, 100 complete control)
Method in brief: as §2

soybean [12] = test: Test C postemergence; assay type: in vivo, Glycine max; conditions: postemergence, 10 days
Method in brief: as §1

oat, wild [13] = test: Test C postemergence; assay type: in vivo, Avena fatua; conditions: postemergence, 10 days
Method in brief: as §1

foxtail, giant [14] = test: Test C preemergence; assay type: in vivo, Setaria faberi; conditions: preemergence, 0 to 100 scale (0 no effect, 100 complete control)
Method in brief: as §1

goosegrass [15] = test: Test C preemergence; assay type: in vivo, Eleusine indica; conditions: preemergence, 0 to 100 scale (0 no effect, 100 complete control)
Excerpt: as §3

foxtail, giant [16] = test: Test C postemergence; assay type: in vivo, Setaria faberi; conditions: postemergence, 10 days
Method in brief: as §1

corn [17] = test: Test C postemergence; assay type: in vivo, Zea mays; conditions: postemergence, 10 days
Method in brief: as §1

ryegrass, Italian [18] = test: Test C preemergence; assay type: in vivo, Lolium multiflorum; conditions: preemergence, 0 to 100 scale (0 no effect, 100 complete control)
Method in brief: as §1

blackgrass [19] = test: Test C preemergence; assay type: in vivo, Alopecurus myosuroides; conditions: preemergence, 0 to 100 scale (0 no effect, 100 complete control)
Method in brief: as §1

oat, wild [20] = test: Test C preemergence; assay type: in vivo, Avena fatua; conditions: preemergence, 0 to 100 scale (0 no effect, 100 complete control)
Method in brief: as §1

barnyardgrass = test: Test D flooded paddy test; assay type: in vivo, Echinochloa crus-galli; conditions: 250 g ai/ha, applied to paddy water, visual rating after 13 to 14 days, scale 0 to 100 (0 no effect, 100 complete control)
Method in brief: as §2

sedge, umbrella = test: Test D flooded paddy test; assay type: in vivo, Cyperus difformis; conditions: 250 g ai/ha, applied to paddy water, visual rating after 13 to 14 days, scale 0 to 100 (0 no effect, 100 complete control)
Method in brief: as §2

soybean [21] = test: Test C preemergence; assay type: in vivo, Glycine max; conditions: preemergence, 0 to 100 scale (0 no effect, 100 complete control)
Method in brief: as §1

blackgrass [22] = test: Test C postemergence; assay type: in vivo, Alopecurus myosuroides; conditions: postemergence, 10 days
Method in brief: as §1

[23] = 125 g ai/ha, 0 to 100 scale, 0 no effect, 100 complete control
[24] = 500 g ai/ha, 0 to 100 scale (0 no effect, 100 complete control)

Cc1cccc2c1O[C@@H](C)CN2C(=O)c1cccc(-n2cnc(-c3ccccc3)n2)c1 [Compound 283]
Plant response rating, Pigweed, Palmer (pigweed, palmer [1]; [23]): 60
Plant response rating, Pigweed, Palmer (pigweed, palmer [1]; [24]): 80
Plant response rating, Ducksalad (Flood) (ducksalad): 0
Pigweed, Palmer plant response rating (pigweed, palmer [2]; 500 g ai/ha): 100
Pigweed, Palmer plant response rating (pigweed, palmer [2]; Test C, 125 g ai/ha): 30
Ragweed plant response rating (ragweed [3]; 500 g ai/ha): 0
Ragweed plant response rating (ragweed [3]; Test C, 125 g ai/ha): 0
Corn plant response rating (corn [4]; 500 g ai/ha): 0
Corn plant response rating (corn [4]; Test C, 125 g ai/ha): 0
Plant response rating, Goosegrass (goosegrass [5]; [23]): 10
Plant response rating, Goosegrass (goosegrass [5]; [24]): 40
Plant response rating, Kochia (kochia [6]; [23]): 70
Plant response rating, Kochia (kochia [6]; [24]): 80
Plant response rating, Ragweed (ragweed [7]; [23]): 10
Plant response rating, Ragweed (ragweed [7]; [24]): 50
Wheat plant response rating (wheat [8]; 500 g ai/ha): 10
Wheat plant response rating (wheat [8]; Test C, 125 g ai/ha): 0
Kochia plant response rating (kochia [9]; 500 g ai/ha): 50
Kochia plant response rating (kochia [9]; Test C, 125 g ai/ha): 20
Plant response rating, Galium (galium; [23]): 50
Plant response rating, Galium (galium; [24]): 80
Plant response rating, Wheat (wheat [10]; [23]): 10
Plant response rating, Wheat (wheat [10]; [24]): 10
Plant response rating, Ryegrass, Italian (ryegrass, Italian [11]; [23]): 20
Plant response rating, Ryegrass, Italian (ryegrass, Italian [11]; [24]): 50
Plant response rating, Rice (Flood) (rice): 0
Plant response rating, Soybean (soybean [12]; [23]): 90
Plant response rating, Soybean (soybean [12]; [24]): 90
Plant response rating, Oat, Wild (oat, wild [13]; [23]): 10
Plant response rating, Oat, Wild (oat, wild [13]; [24]): 10
Foxtail, Giant plant response rating (foxtail, giant [14]; 500 g ai/ha): 90
Foxtail, Giant plant response rating (foxtail, giant [14]; Test C, 125 g ai/ha): 60
Goosegrass plant response rating (goosegrass [15]; 500 g ai/ha): 100
Goosegrass plant response rating (goosegrass [15]; Test C, 125 g ai/ha): 80
Plant response rating, Foxtail, Giant (foxtail, giant [16]; [23]): 20
Plant response rating, Foxtail, Giant (foxtail, giant [16]; [24]): 90
Plant response rating, Corn (corn [17]; [23]): 20
Plant response rating, Corn (corn [17]; [24]): 20
Ryegrass, Italian plant response rating (ryegrass, Italian [18]; 500 g ai/ha): 100
Ryegrass, Italian plant response rating (ryegrass, Italian [18]; Test C, 125 g ai/ha): 70
Blackgrass plant response rating (blackgrass [19]; 500 g ai/ha): 40
Blackgrass plant response rating (blackgrass [19]; Test C, 125 g ai/ha): 40
Oat, Wild plant response rating (oat, wild [20]; 500 g ai/ha): 10
Oat, Wild plant response rating (oat, wild [20]; Test C, 125 g ai/ha): 20
Plant response rating, Barnyardgrass (Flood) (barnyardgrass): 0
Plant response rating, Sedge, Umbrella (Flood) (sedge, umbrella): 0
Soybean plant response rating (soybean [21]; 500 g ai/ha): 30
Soybean plant response rating (soybean [21]; Test C, 125 g ai/ha): 0
Plant response rating, Blackgrass (blackgrass [22]; [23]): 10
Plant response rating, Blackgrass (blackgrass [22]; [24]): 40
